Legend:
CYP2C19 = CYP2C19 (Homo sapiens, UniProt P33261); experiment: Selective chemical inhibition of compound of formula (I) depletion in human liver microsomes, CYP2C19; format: in vitro ADME; set-up: from tissue; host or cells: human liver microsomes; conditions: human, human liver microsomes, probe compound of formula (I) (depletion); Time-dependent inhibitor; targeted CYP 2C19; inhibitor 10 μM
[1] = tested on: parental MP41 cells and PKC inhibitor (PKCl)-resistant cells; experiment: 7-day growth inhibition assay, parental and PKC inhibitor-resistant cells; format: cell-based; conditions: 7-day assay
CYP2B6 = biological target: T1, CYP2B6 (Homo sapiens, UniProt P20813); experiment: Selective chemical inhibition of compound of formula (I) depletion in human liver microsomes, CYP2B6; format: in vitro ADME; set-up: from tissue; host or cells: human liver microsomes; conditions: probe compound of formula (I) (depletion), Time-dependent inhibitor, targeted CYP 2B6, inhibitor 30 μM
T1 sequence (P20813 1-491): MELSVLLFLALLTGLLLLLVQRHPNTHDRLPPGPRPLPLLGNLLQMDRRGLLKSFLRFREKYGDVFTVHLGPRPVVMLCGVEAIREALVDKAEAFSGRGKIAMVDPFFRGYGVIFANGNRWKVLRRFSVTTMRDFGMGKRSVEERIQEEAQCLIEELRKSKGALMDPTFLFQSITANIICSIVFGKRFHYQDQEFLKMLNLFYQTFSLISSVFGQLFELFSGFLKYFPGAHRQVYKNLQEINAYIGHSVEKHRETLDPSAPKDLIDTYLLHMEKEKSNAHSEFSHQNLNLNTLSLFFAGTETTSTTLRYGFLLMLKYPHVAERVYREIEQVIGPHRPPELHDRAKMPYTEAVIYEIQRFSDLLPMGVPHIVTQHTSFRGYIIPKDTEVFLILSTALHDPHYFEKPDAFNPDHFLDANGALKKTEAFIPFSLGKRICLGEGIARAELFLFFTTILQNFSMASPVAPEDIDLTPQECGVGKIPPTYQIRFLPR

CYP3A4/5 = experiment: Selective chemical inhibition of compound of formula (I) depletion in human liver microsomes, CYP3A4/5; conditions: human
CYP2C9 = CYP2C9 (Homo sapiens, UniProt P11712); experiment: in vitro
2C8 = biological target: T2, 2C8 (Homo sapiens, UniProt P10632); experiment: Selective chemical inhibition of compound of formula (I) depletion in human liver microsomes, CYP2C8; format: in vitro ADME; conditions: Time-dependent inhibitor; targeted CYP 2C8; inhibitor 100 μM
T2 construct: from tissue; host or cells: human liver microsomes

CYP1A2 mRNA = experiment: CYP mRNA level (qRT-PCR) in cultured human hepatocytes, CYP1A2; conditions: 50 μM, range of fold change observed from three donors
CYP1A2 enzyme activity = experiment: CYP enzyme activity in cultured human hepatocytes, CYP1A2; format: in vitro ADME; conditions: 50 μM, range from three donors
CYP1A2 = biological target: T3, CYP1A2 (Homo sapiens, UniProt P05177); experiment: in vitro
T3 sequence (P05177 1-516): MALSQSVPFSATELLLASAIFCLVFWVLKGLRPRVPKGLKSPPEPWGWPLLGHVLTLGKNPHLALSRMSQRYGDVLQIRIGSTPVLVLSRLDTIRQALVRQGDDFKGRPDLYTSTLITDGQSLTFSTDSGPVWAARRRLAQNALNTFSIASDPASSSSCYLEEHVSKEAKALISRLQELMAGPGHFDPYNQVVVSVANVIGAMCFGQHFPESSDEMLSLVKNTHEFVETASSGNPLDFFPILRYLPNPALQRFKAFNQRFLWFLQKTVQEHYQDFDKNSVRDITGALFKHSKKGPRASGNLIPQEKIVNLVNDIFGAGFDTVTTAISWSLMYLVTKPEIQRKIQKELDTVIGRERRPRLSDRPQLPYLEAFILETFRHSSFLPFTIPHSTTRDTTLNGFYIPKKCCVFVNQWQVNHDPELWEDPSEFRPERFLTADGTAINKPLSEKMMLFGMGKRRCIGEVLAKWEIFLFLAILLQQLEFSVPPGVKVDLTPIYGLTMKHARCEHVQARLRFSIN

[2] = tested on: Uveal melanoma cell lines, 92-1 or MP41; experiment: 3-day growth inhibition, Compound B compared with clinical PKC and MEK inhibitors; format: cell-based
[3] = tested on: Uveal melanoma cell lines (92-1, MP41, MP38, MP46) and non-small cell lung cancer cells (NCIH1299); experiment: 3-day growth inhibition, Compound B; format: cell-based; conditions: 92-1, MP41, MP38, MP46, NCIH1299; 3 days, 0 to 10 μM
CYP2B6 activity = experiment: CYP enzyme activity in cultured human hepatocytes, CYP2B6; format: in vitro ADME; conditions: 1000 μM, range from three donors
CYP2B6 mRNA = experiment: CYP mRNA level (qRT-PCR) in cultured human hepatocytes, CYP2B6; conditions: CYP2B6; 1000 μM; range from three donors
CYP2C19 mRNA = experiment: CYP mRNA level in cultured human hepatocytes, CYP2C19; format: in vitro ADME; conditions: CYP2C19; 20 μM; range from three donors
2D6 = 2D6 (Homo sapiens, UniProt P10635); experiment: Selective chemical inhibition of compound of formula (I) depletion in human liver microsomes, CYP2D6; conditions: Direct inhibitor; targeted CYP 2D6; inhibitor 5 μM
CYP2A6 = biological target: T4, CYP2A6 (Homo sapiens, UniProt P11509); experiment: Selective chemical inhibition of compound of formula (I) depletion in human liver microsomes, CYP2A6; format: in vitro ADME; conditions: probe compound of formula (I) (depletion), Direct inhibitor, targeted CYP 2A6, inhibitor 10 μM
T4 construct: from tissue; host or cells: human liver microsomes

[4] = tested on: Uveal melanoma cell lines, 92-1 or MP41; experiment: 3-day growth inhibition, Compound A compared with clinical PKC and MEK inhibitors; format: cell-based

T4 sequence (P11509 whole entry): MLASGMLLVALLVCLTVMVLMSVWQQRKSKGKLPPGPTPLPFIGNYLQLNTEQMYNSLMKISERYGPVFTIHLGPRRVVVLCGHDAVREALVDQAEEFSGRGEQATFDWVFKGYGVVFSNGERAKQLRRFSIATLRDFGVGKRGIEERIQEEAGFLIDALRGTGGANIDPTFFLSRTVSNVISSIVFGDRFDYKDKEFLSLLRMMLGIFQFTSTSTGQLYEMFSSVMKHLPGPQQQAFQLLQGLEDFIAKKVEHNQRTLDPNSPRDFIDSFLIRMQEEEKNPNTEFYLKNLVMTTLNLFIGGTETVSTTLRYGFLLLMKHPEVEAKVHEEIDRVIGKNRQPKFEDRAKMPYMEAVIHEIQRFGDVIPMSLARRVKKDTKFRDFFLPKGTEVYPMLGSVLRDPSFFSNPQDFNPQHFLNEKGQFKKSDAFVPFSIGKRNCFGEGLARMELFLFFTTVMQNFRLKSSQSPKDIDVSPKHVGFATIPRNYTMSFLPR
T2 sequence (P10632 whole entry): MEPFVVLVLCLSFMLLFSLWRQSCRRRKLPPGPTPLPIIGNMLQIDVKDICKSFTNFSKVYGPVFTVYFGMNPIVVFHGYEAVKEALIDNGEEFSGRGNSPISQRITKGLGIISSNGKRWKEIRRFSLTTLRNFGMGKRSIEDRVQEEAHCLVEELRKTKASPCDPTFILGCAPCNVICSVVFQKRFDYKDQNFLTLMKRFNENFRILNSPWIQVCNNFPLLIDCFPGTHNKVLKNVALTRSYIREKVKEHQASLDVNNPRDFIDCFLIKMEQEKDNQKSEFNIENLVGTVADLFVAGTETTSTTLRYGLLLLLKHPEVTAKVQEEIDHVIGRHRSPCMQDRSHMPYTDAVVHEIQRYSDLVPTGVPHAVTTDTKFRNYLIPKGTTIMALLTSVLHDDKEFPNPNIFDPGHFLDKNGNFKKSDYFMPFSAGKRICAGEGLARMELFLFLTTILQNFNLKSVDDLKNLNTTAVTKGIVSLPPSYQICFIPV
CYP2C19, sequence (P33261 whole entry): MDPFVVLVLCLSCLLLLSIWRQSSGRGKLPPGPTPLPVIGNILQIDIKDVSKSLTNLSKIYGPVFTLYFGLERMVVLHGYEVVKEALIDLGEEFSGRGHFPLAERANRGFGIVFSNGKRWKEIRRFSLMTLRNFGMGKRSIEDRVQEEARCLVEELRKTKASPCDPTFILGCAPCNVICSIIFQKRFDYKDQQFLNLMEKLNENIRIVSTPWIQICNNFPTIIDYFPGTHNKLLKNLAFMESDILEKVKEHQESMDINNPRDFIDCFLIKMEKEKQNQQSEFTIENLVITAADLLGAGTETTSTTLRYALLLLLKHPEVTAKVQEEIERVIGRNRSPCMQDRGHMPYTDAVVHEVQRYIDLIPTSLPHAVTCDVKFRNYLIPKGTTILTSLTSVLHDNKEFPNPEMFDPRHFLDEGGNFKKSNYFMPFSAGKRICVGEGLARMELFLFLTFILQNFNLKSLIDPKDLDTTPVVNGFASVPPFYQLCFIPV
2D6, sequence (P10635 whole entry): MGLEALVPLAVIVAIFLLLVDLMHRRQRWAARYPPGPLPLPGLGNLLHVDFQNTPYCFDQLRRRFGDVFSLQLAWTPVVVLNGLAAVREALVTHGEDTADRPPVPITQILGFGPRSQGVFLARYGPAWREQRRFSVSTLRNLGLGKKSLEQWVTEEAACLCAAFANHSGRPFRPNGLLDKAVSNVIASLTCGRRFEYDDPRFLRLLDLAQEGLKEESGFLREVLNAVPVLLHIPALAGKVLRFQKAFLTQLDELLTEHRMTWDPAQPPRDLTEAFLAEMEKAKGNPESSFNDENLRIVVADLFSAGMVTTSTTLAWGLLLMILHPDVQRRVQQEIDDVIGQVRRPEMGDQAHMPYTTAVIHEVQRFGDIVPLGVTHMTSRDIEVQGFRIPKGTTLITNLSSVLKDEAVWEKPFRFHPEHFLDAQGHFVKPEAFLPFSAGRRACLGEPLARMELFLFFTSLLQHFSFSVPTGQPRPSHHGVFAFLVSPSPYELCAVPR
CYP2C9, sequence (P11712 whole entry): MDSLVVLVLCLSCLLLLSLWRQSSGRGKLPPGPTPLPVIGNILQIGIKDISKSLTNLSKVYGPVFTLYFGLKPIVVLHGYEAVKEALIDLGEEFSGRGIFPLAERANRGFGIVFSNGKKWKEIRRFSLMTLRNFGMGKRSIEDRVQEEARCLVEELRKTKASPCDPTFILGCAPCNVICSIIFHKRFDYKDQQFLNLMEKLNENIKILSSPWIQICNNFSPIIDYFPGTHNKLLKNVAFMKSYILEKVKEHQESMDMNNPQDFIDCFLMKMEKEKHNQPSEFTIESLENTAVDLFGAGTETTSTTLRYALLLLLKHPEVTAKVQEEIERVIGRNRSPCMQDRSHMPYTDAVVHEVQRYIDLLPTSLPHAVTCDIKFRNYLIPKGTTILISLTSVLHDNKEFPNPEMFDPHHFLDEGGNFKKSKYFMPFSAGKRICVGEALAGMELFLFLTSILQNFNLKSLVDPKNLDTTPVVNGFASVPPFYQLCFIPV

Compound: COc1ccc2nc([S@@+]([O-])Cc3ncc(C)c(OC)c3C)[nH]c2c1 [Esomeprazole, reference compound]
- inhibition at 10 µM (CYP2C19): 27.1%

Compound: CC1(N)CCN(c2cccnc2NC(=O)c2nc(-c3ncccc3C(F)(F)F)cnc2N)CC1 [LXS196]
- sensitivity of PKCl-resistant cells relative to parental MP41 cells [1]: could tolerate growth at higher concentrations

Compound: c1ccc(C2(N3CCCCC3)CCCCC2)cc1 [Phencyclidine]
- inhibition at 30 µM (CYP2B6): 5.7%

Compound: CC(=O)N1CCN(c2ccc(OCC3COC(Cn4ccnc4)(c4ccc(Cl)cc4Cl)O3)cc2)CC1 (stereo not shown) [Ketoconazole, reference compound]
- inhibition at 1 µM (CYP3A4/5): 83.3%

Compound: O=C(O)COc1ccc(C(=O)c2cccs2)c(Cl)c1Cl [Tienilic acid]
- inhibition at 20 µM (CYP2C9): 2.4%

Compound: Cc1ccc(C)c(OCCCC(C)(C)C(=O)O[C@@H]2O[C@H](C(=O)O)[C@@H](O)[C@H](O)[C@H]2O)c1 [Gemfibrozil glucuronide]
- % Inhibition of compound of formula (I) depletion in human liver microsomes (2C8): No

Compound: COc1ccc2[nH]c([S+]([O-])Cc3ncc(C)c(OC)c3C)nc2c1 (stereo not shown) [Omeprazole, reference compound]
- Positive Control mRNA Fold Change (CYP1A2 mRNA): 50.2-118
- Positive Control Enzyme Activity Fold Change (CYP1A2 enzyme activity): 20.0-93.9

Compound: Cc1nc2c([nH]1)c(=O)n(C)c(=O)n2Cc1ccco1 [Furafylline]
- inhibition at 10 µM (CYP1A2): 1.9%

Compound: CSCC[C@H](NC(=O)c1ccn(S(C)(=O)=O)c1)C(=O)Nc1nc(-c2cccc(-c3ccncc3)c2)cs1 [Compound B]
- onset of growth inhibition versus clinical PKC and MEK inhibitors ([2]; 92-1 or MP41): faster onset of growth inhibition
- growth inhibition of uveal melanoma cells versus clinical PKC and MEK inhibitors ([2]; 92-1 or MP41, 3 days, vs LXS196 and selumetinib): more potent effects on growth inhibition
- growth inhibition in the cell lines [3]: potent growth inhibition

Compound: CCC1(c2ccccc2)C(=O)NC(=O)NC1=O [Phenobarbital, reference compound]
- Positive Control Enzyme Activity Fold Change (CYP2B6 activity): 11.9-16.7
- Positive Control mRNA Fold Change (CYP2B6 mRNA): 15.3-39.6

Compound: CO[C@H]1/C=C/O[C@@]2(C)Oc3c(C)c(O)c4c(O)c(c(/C=N/N5CCN(C)CC5)c(O)c4c3C2=O)NC(=O)/C(C)=C\C=C\[C@H](C)[C@H](O)[C@@H](C)[C@@H](O)[C@@H](C)[C@H](OC(C)=O)[C@@H]1C [Rifampin, reference compound]
- Positive Control mRNA Fold Change (CYP2C19 mRNA): 0.61-1.01

Compound: C=C[C@H]1C[N@@]2CC[C@H]1C[C@@H]2[C@@H](O)c1ccnc2ccc(OC)cc12 [Quinidine]
- % Inhibition of compound of formula (I) depletion in human liver microsomes (2D6): No

Compound: N#Cc1ccc(C(c2ccc(C#N)cc2)n2cncn2)cc1 [Letrozole]
- inhibition at 10 µM (CYP2A6): 9.1%

Compound: CSCC[C@H](NC(=O)c1ccc(N)cc1)C(=O)Nc1nc(-c2cccc(-c3ccncc3)c2)cs1 [Compound A]
- onset of inhibition versus clinical PKC and MEK inhibitors ([4]; 92-1 or MP41): faster onset of inhibition
- growth inhibition of uveal melanoma cells versus clinical PKC and MEK inhibitors ([4]; 92-1 or MP41, 3 days, 0 to 10 μM, vs LXS196 and selumetinib): comparable growth inhibition

— patent US20240189318A1, “THERAPEUTIC REGIMENS OF AN INHIBITOR OF THE ENZYMATIC ACTIVITY OF BRG1 AND BRM” (FOGHORN THERAPEUTICS INC., priority 2021, published 2024)
